Experimental data taken from patent US20190209581A1, “DOSAGE REGIMEN FOR TREATMENT OF SOLID TUMORS” (Eli Lilly and Company, priority 2016, published 2019).

How the values were obtained:
[1] = Atropisomer equilibrium in solution by 1H NMR and LC-MS; format: physicochemical; conditions: ambient temperature, after 24 hours
Description: In aqueous solutions, 8-9% of atropisomer 2 (minor atropisomer) is detected by ^1H NMR and LC-MS in equilibrium with atropisomer 1 (major atropisomer) at ambient temperature after 24 hours. In organic solvents, at ambient temperature after 24 hours, approximately 1-2% of atropisomer 2 is detected by ^1H NMR and LC-MS in equilibrium with atropisomer 1. Although detectable by ^1H NMR and LC-MS analysis, atropisomer 2 is not isolable.

[2] = test system: human triple negative invasive ductal breast carcinoma (EL1997); test: Tumor growth inhibition, patient-derived tumor model EL1997; format: in vivo; conditions: EL1997 in mice, oral 10 mg/kg (Q2Dx7), 11-days OFF, 8 mg/kg (Mon, Wed, Fri)x4; p <0.0001
Description: To evaluate in vivo efficacy and effect of 4,4,4-Trifluoro-N-[(1S)-2-[[(7S)-5-(2-hydroxyethyl)-6-oxo-7H-pyrido[2,3-d][3]benzazepin-7-yl]amino]-1-methyl-2-oxo-ethyl]butanamide on inhibition of Notch processing pharmacodynamics (PD), several cell lines- and patient-derived xenograft models are used. A2780 is a human ovarian cell line (Sigma-Aldrich, No. 93112519); SW480 is a human colorectal cell line (ATCC No. CCL-228); HCT 116 is a human colorectal cell line (ATCC No. CCL-247); U-87 MG is a human glioblastoma cell line (ATCC No. HTB-14); A375 is a human malignant melanoma cell line (ATCC No. CRL-1619); K-562 is a human chronic myelogenous leukemia (CML) cell line characterized by the presence of a fusion transcript comprised of the Bcr and Abl1 genes (ATCC No. CCL-243); Jurkat; HEL 92.1.7 is a human erythroleukemia cell line (ATCC No. TIB-180). […] Tumor growth and body weight are monitored over time to evaluate efficacy and signs of toxicity. Bidimensional measurements of tumors are performed twice a week and tumor volumes are calculated based on the following formula: (Tumor Volume)=[(L)×(W2)×(Π/6)] where L is mid-axis length and W is mid-axis width. […] The log volume data are analyzed with a two-way repeated measures analysis of variance by time and treatment using the MIXED™ procedures in SAS™ software (version 8.2). […]

[3] = test system: A2780 human ovarian cell line; test: Tumor growth inhibition, A2780 xenograft; format: in vivo; conditions: for % TGI: A2780 in mice
Description: To evaluate in vivo efficacy and effect of 4,4,4-Trifluoro-N-[(1S)-2-[[(7S)-5-(2-hydroxyethyl)-6-oxo-7H-pyrido[2,3-d][3]benzazepin-7-yl]amino]-1-methyl-2-oxo-ethyl]butanamide on inhibition of Notch processing pharmacodynamics (PD), several cell lines- and patient-derived xenograft models are used. A2780 is a human ovarian cell line (Sigma-Aldrich, No. 93112519); SW480 is a human colorectal cell line (ATCC No. CCL-228); HCT 116 is a human colorectal cell line (ATCC No. CCL-247); U-87 MG is a human glioblastoma cell line (ATCC No. HTB-14); A375 is a human malignant melanoma cell line (ATCC No. CRL-1619); K-562 is a human chronic myelogenous leukemia (CML) cell line characterized by the presence of a fusion transcript comprised of the Bcr and Abl1 genes (ATCC No. CCL-243); Jurkat; HEL 92.1.7 is a human erythroleukemia cell line (ATCC No. TIB-180). Each of the cell lines are obtained from the American Type Culture Collection (ATCC) at the ATCC number stated, except the A2780 cell line which is obtained from Sigma-Aldrich at the stated catalog number. The cells are grown in their respective, recommended culture media at 37° C. in 5% CO2 with humidity in the atmosphere. A2780 (2×10^6), SW480 (6×10^6), HCT 116 (6×10^6), U-87 MG (6×10^6), and A-375 (10×10^6) cells in a 1:1 matrigel mix (0.2 mL volume) are implanted by subcutaneous injection in the hind leg of 6-8 weeks of age athymic nude female mice (Harlan Laboratories). K-562 (6×10^6) cells in a 1:1 matrigel mix (0.2 mL volume) are implanted by subcutaneous injection in the hind leg of 6-8 weeks of age CD1 nμ/nμ female mice (Charles River Laboratories). HEL 92.1.7 (7×10^6) in a 1:1 matrigel mix (0.2 mL volume) are implanted by subcutaneous injection in the hind leg of 6-8 weeks of age CB17 severely combined immune deficient female mice (Taconic Farms). Patient-derived tumors are minced into 1-2 mm pieces and mixed with matrigel (1:1) in 0.2 ml volume and implanted by subcutaneous injection in the hind leg of 6-8 weeks of age athymic nude female mice (Harlan Laboratories). Patients-derived tumor models include: human colon carcinoma (EL2144), human triple negative invasive ductal breast carcinoma (EL1997), human colon carcinoma (EL1989, EL 1986), and human glioblastoma (EL 2056) with samples obtained after patient consent and hospital approval from IU Health, Methodist Hospital, Indianapolis, Ind., USA 46206. A total of 7 to 10 mice are used for each group. Just before implantation for A2780, SW480, HEL 92.1.7, A-375, K-562, and patient-derived tumor models, animals are irradiated (450 Total Body Irradiation). Mice are fed ad libitum on normal chow. Treatment is initiated with oral administration (gavage) of compound or vehicle (1% Na-CMC in 0.25% Tween®-80) in 0.2 mL volume when tumor size reached to 150±50 mm^3. At designated time points following treatment, animals are sacrificed by CO2 asphyxiation and cervical dislocation. Tumors are removed and used for PD response analysis. Tumor growth and body weight are monitored over time to evaluate efficacy and signs of toxicity. Bidimensional measurements of tumors are performed twice a week and tumor volumes are calculated based on the following formula: (Tumor Volume)=[(L)×(W2)×(Π/6)] where L is mid-axis length and W is mid-axis width. Tumor volume data are transformed to a log scale to equalize variance across time and treatment groups. The log volume data are analyzed with a two-way repeated measures analysis of variance by time and treatment using the MIXED™ procedures in SAS™ software (version 8.2). The correlation model for the repeated measures is spatial power. Treated groups are compared to the control group at each time point. The MIXED™ procedure is also used separately for each treatment group to calculate adjusted means and standard errors at each time point. Both analyses account for the autocorrelation within each animal and the loss of data that occurs when animals with large tumors are removed from the study early. […]

C[C@H](NC(=O)CCC(F)(F)F)C(=O)N[C@@H]1C(=O)N(CCO)c2ncccc2-c2ccccc21 [Compound 1, 4,4,4-trifluoro-N-[(1S)-2-[[(7S)-5-(2-hydroxyethyl)-6-oxo-7H-pyrido[2,3-d][3]benzazepin-7-yl]amino]-1-methyl-2-oxo-ethyl]butanamide]
atropisomer 2 (minor atropisomer) in equilibrium with atropisomer 1 ([1]; aqueous solutions): 8-9%
atropisomer 2 (minor atropisomer) in equilibrium with atropisomer 1 ([1]; organic solvents): 1-2%
% TGI [2]: 80.28 (<0.0001) %
% TGI ([3]; oral 1.5 mg/kg, QDx26, p <0.05 to <0.01): 33.36 (<0.05 to %
% TGI ([3]; oral 3 mg/kg, (BID)QDx7 + (BID)Q2Dx7, p <0.0001): 72.35 (<0.0001) %
% TGI ([3]; oral 3 mg/kg, Q2Dx13, p <0.05 to <0.01): 36.65 (<0.05 to %
% TGI ([3]; oral 3 mg/kg, QDx21, p <0.0001): 46.60 (<0.0001) %
% TGI ([3]; oral 6 mg/kg, Q2Dx13, p <0.05 to <0.01): 36.33 (<0.05 to %
% TGI ([3]; oral 7 mg/kg, Q2Dx13, p <0.0001): 56.95 (<0.0001) %
% TGI ([3]; oral 8 mg/kg, Q2Dx13, p <0.0001): 68.60 (<0.0001) %
% TGI ([3]; oral 10 mg/kg, Q2Dx11, p <0.0001): 56.55 (<0.0001) %
% TGI ([3]; oral 10 mg/kg, Q2Dx13, p <0.0001): 51.11 (<0.0001) %
% TGI ([3]; oral 10 mg/kg, Q3Dx8, p <0.0001): 32.99 (<0.0001) %
Effect of alternative dosing regimens on tumor growth inhibition ([3]; xenograft models of Table 5): more frequent dosing affords greater efficacy
